Experimental data reported in patent US20210381022A1, “INTEGRATED DRUG DISCOVERY PLATFORM FOR INBORN ERROR OF METABOLISM DISORDERS” (RAMOT AT TEL-AVIV UNIVERSITY LTD., priority 2018, published 2021).

Experiments:
mutant yeast strain = assay: IC50 assay in yeast, rescue from adenine toxicity (HTS growth format); assay type: cell-based; settings: Saccharomyces cerevisiae, 22 h, read-out: IC50, rescuing mutant yeast strain from adenine toxicity
Method: Yeast strains were grown over night at 30° C. in SD medium without adenine and were diluted to OD600 0.005. 80 μL of cells were platted on 384 wells plates and incubated at 30° C. for 22 hours with continuous shaking. OD600 was measured using Tecan™ SPARK 10M plate reader.
Yeast strains were diluted to OD600 0.005. 80 μL of cells were platted on 384 wells plates. Compounds were added with Tecan™ D300 printer at relevant concentrations and plates were incubated at 30° C. for 22 hours with continuous shaking. OD600 was measured using Tecan™ SPARK 10M plate reader. IC50 calculations were performed with CDD software.
The high-throughput screening was calibrated for 384 plate format using phenotypic assay based on yeast growth rate (measured by OD). The goal was to find hit compounds that will dramatically improve the growth rate as compared to the salvage mutant in the presence of adenine. All relevant controls were used including: mutant yeast grown without adenine addition, WT yeast, and mutant yeast in the presence of adenine with Prazosin as a positive control compound. Potential hits were selected after calculations of growth curve slopes and area under the curve during the logarithmic phase. After hit validation and dose response experiments, hits displaying low IC50 rates were selected implying on a good potential for some of the compounds (FIG. 14).

adenine fibrils [1] = assay: ThT assay of adenine self-assembly inhibition in vitro; settings: adenine 8 mg/ml in PBS with inhibitor
Method: Adenine was dissolved at 90° C. in PBS to a final concentration of 8 mg/ml and mixed with the indicated inhibitor, at the indicated concentrations, or with PBS as a control, followed by addition of ThT in PBS. ThT emission data at 480 nm (excitation at 450 nm) were measured at the end point.
Adenine was dissolved to a final concentration of 8 mg/ml at 90° C. in PBS. The solution was plated on a 96-well black plate and mixed with the inhibitor baicalein at the stated concentration, and with 20 μm ThT (final concentration). Fluorescence (excitation at 450 nm, emission at 480 nm) was recorded over time using a Tecan™ Infinite® 200 PRO plate reader. Data processing was performed using the OriginLab software.
To further examine if the compounds specifically target the adenosine amyloid-like structures. the compounds were tested using adenine in-vitro aggregation assay. Adenine was self-assembled with and without the inhibitors and stained with the amyloids dye, Thioflavin T (ThT). […] More specifically. Adenosine (30 mg/mL) and guanosine (3 mg/ml) were dissolved in PBS at 90° C., followed by the addition of ThT at final concentration of 20 μM. ThT emission data at 480 nm (excitation at 450 nm) was measured over time. TEM images show elongated adenosine fibrils (10 mg/mL) and guanosine fibrils (1 mg/mL) (FIGS. 34A and 34B, respectively). ThT fluorescence assay of adenosine and guanosine assemblies, are shown by FIGS. 34C, and 34D respectively.

[2] = system: adenosine aggregates in ADA deficient LCLs; assay: Aggregation assay (Proteostat, FACS) on ADA deficient LCLs; assay type: cell-based, human; settings: for formation of adenosine aggregates (aggregation level, Proteostat staining): patient derived lymphoblastoids, 19 concentrations from 50 μM to 0.003 μM
Method: 24 hours after seeding in full medium cells were washed with medium without serum and placed in medium without serum. Following 72 hours of incubation with or without Adenosine (A9251 SIGMA) (200 ug/ml), cells were washed with PBS and stained for adenosine aggregates with Proteostat dye (ENZ-51023-KP002). Proteostat concentration was 1:3000 of diluted stock. Following 15 minutes' incubation, cells were washed with PBS and mean fluorescence was measured with FACS.
Cells were treated with adenosine alone or with adenosine with compounds. Compound activity was tested in 19 concentrations in range from 50 uM to 0.003 uM.
Readouts: Proteostat Fluorescence intensity was measured with FACS at 2 excitation wavelengths: 488 nm and 550 nm. Emission wavelength was 600 nm.
24 hours after seeding in 96 round bottom plates in full medium cells were washed once with medium without serum and placed in medium without serum. Following 72 hours of incubation with or without Adenosine (200 ug/ml) and with or without purpurin (2 uM), cells were washed once with PBS and stained for adenosine aggregates with Proteostat dye (Enzo Life Sciences). Proteostat concentration was 1:4000 of diluted stock. Following 15 minutes incubation, cells were washed with PBS and mean flow cytometry was preformed using Stratedigm S1000EXi and the CellCapTure software (Stratedigm, San Jose, Calif.). Analyses were performed using FlowJo software (TreeStar, version 10).
For quantification of intracellular adenosine aggregates by FACS analyses, 100,000 cells were seeded in 96 well plates in full medium. After 24 hours, cells were centrifuged, washed once and added with serum free medium with or without Adenosine (200 μg/ml). After incubation of 72 hours cells were washed with PBS and stained for adenosine aggregates with Proteostat dye. Following 15 minutes incubation, cells were washed with PBS and mean fluorescence was measured with FACS. Mean cell fluorescence of every cell line was normalized to its signal without adenosine and data is presented as percentage of aggregates.

ADA deficient LCLs = assay: LCLs survival assay (XTT), ADA deficient LCLs; assay type: cell-based, human
Method: (§1) 24 hours after seeding in 96 round bottom plates in full medium cells were washed once with medium without serum and placed in medium without serum. Following 72 hours of incubation with or without Adenosine (200 ug/ml) and with or without purpurin (2 uM), XTT based cell viability assay was performed. Absorbance was measured with Tecan™ SPARK 10M plate reader.
(§2) In order to assess the toxic effect of adenosine aggregates, XTT based cell viability assays were performed on healthy and ADA deficient LCLs. Cells went through similar procedure as described above except adenosine was at 300 μg/ml. Survival percentage was calculated as absorbance with adenosine divided by absorbance without adenosine. […] Moreover. 4 out of 5 ADA deficient cell lines display less than 20% survival (FIG. 15B cell lines 7,8,9,11,12).

healthy LCLs = assay: LCLs survival assay (XTT), healthy LCLs; assay type: cell-based, human; settings: adenosine 300 μg/ml
Method: as §1, §2

aah1Δapt1Δ strain = assay: Yeast growth assay of adenine salvage mutant with adenine feeding; assay type: cell-based, Saccharomyces cerevisiae
Method: (§3) Strains were grown over night at 30° C. in SD medium without adenine. For spotting assays, strains were diluted to 6.25*10^7 cells/mL and were then 5-fold serially diluted and spotted on SD media with the indicated concentrations of adenine or TA (Sigma-Aldrich). Plates were incubated at 30° C. for 2 days. […] For OD600 measurements, strains were diluted to OD600 0.01, 200 μL of cells were platted on 96 wells plates and incubated at 30° C. for 25 hours with continuous shaking. OD600 was measured using Tecan™ SPARK 10M plate reader.
For the percentage of growth analysis (FIG. 10B and FIG. 13A), OD600 was measured when cells reached log phase. The percentage of growth represents the growth with TA compared to the growth without TA.

[3] = system: adenine aggregation in aah1Δapt1Δ cells; assay: Flow cytometry with ProteoStat staining of salvage mutant; assay type: cell-based, Saccharomyces cerevisiae; settings: adenine in media, TA 0.5 mM
Method: An amount of 1 mL of logarithmic cells were washed with PBS buffer and sonicated using 15 s pulses at 20% power. For each sample, 2*10^6 cells were resuspended with ProteoStat dye (Enzo Life Sciences) diluted 1:3000 in ProteoStat assay buffer. Cells were incubated for 15 min at room temperature protected from light. Flow cytometry was preformed using Stratedigm S1000EXi and the CellCapTure software (Stratedigm, San Jose, Calif.). Live cells were gated (P1) by forward scatter and side scatter. Fluorescence channels for FITC (530/30) and PE-Cy5 (676/29) were used utilizing a 488 nm laser source. A total of 50,000 events were acquired for each sample. Analyses were performed using FlowJo software (TreeStar, version 10).

aah1Δapt1Δ cells [4] = assay: Confocal microscopy with ProteoStat staining of salvage mutant; assay type: cell-based, Saccharomyces cerevisiae; settings: adenine in media, TA 0.5 mM
Method: An amount of 1 mL of logarithmic cells were washed with PBS buffer, sonicated using 15 s pulses at 20% power and resuspended in 50 μL of ProtesoStat dye diluted 1:250 in ProteoStat assay buffer. Cells were incubated for 15 min at room temperature protected from light. 10 μL of each sample was deposited on poly-lysine coated glass slides (Sigma-Aldrich). Cells were imaged using Leica TCS SP8 laser confocal microscope with 63×1.4 NA or 100*1.4 NA oil objectives. To visualize the nuclei, Hoechst (33342; ImmunoChimestry) was used. An argon laser with 488 excitation line was used for ProteoStat (emission wavelength, 500 to 600 nm), and a 405 UV laser was used to excite Hoechst fluorescence (emission wavelength, 415 to 450 nm).

aah1Δapt1Δ cells [5] = assay: LC-MS detection of TA and adenine inside cells; assay type: cell-based, Saccharomyces cerevisiae; settings: cells grown in SD medium containing adenine and TA
Method: 100 ml of cells at the logarithmic phase were centrifuged and washed three times with PBS. 1 ml of the growth medium and of each wash were collected for LC-MS analysis. After the third wash, the pellet was resuspended in PBS together with acid-washed glass beads. Tubes were vortexed for 45 minutes in 4° C. using disruptor-genie. Cell debris and soluble material were separated by centrifugation. Both fractions as well as the medium and washes were analyzed by MS. The pellet was resuspended in 200 μl DMSO, heated for 5 minutes at 85° C. and sonicated for 5 minutes at 40° C. The lysis mixture was centrifuged at 6000 rpm for 10 minutes. 150 μl of the lysate were transferred to a Waters 96 well ACQUITY collection plate for LC-MS analysis. 20 μl of each sample were injected to Waters Autopurification system analytical module equipped with SQD2 MS detector at the following conditions: a. LC: Waters XSelect Peptide CSH C18 column (5 μm, 4.6 mm×100 mm) using a 10 minute gradient from 95:5 Water:acetonitrile (both with 0.1% formic acid) to acetonitrile (0.1% formic acid); b. MS: acquisition parameters were optimized in order to select the proper ion for selected ion monitoring (SIR) experiments.

wild-type strain = assay: Yeast growth assay of wild-type strain; assay type: cell-based, Saccharomyces cerevisiae; settings: 13 mg/L cysteine, 80 mg/L homocysteine, 0.3 mM TA
Method: as §3

cys4Δ strain = assay: Yeast growth assay of cys4Δ mutant with homocysteine; assay type: cell-based, Saccharomyces cerevisiae; settings: 13 mg/L cysteine, 80 mg/L homocysteine, 0.3 mM TA
Method: FIG. 27E: WT and cys4Δ strains diluted to OD600 0.01 were grown in SD media containing 13 mg/L cysteine and 80 mg/L homocysteine in the under the indicated conditions. 0.3 mM TA was added to the samples at different OD600. The percentage of growth represents the growth the indicated condition compared to the growth of WT without TA. *P<0.05 (Student's t-test).
Homocystinuria results from cystathionine beta synthase (CBS) deficiency, leading to excess of Hcy. A knockout mutation in CYS4, the highly-conserved functional yeast ortholog of the human cystathionine beta synthase (CBS) known to be essential for Hcy salvage, was therefore generated. Due to the contribution of this enzyme to cysteine biosynthesis, it was first shown that its absence confers cysteine dependence (FIG. 27A). […] To examine whether the observed toxicity was associated with the in vivo formation of amyloid-like assemblies, the cells were stained with the amyloid-specific fluorescent dye ProteoStat which allows to detect intracellular amyloid fibrils. […] Next, to further establish the amyloid-like nature of the aggregates, the fibrillation-modifying polyphenolic compound tannic acid (TA) was used (FIG. 27E).

adenine fibrils [6] = settings: previously demonstrated, reference [4]; cited from earlier work
phenylalanine assemblies = settings: reference [4]; cited from earlier work

For `O=C1c2ccccc2C(=O)c2c(O)c(O)cc(O)c21` [Purpurin, 1,2,4-trihydroxyanthracene-9,10-dione], the IC50 (mutant yeast strain) was 14.4 nM, the “amyloids staining (ThT, end point)” value (adenine fibrils [1]) was “significantly reduced the amyloids staining” and the “Proteostat staining of adenosine aggregates” value ([2]; 2 μM Purpurin, adenosine 200 μg/ml, 72 hours) was “reduced to significantly lower levels”. The “formation of adenosine aggregates (aggregation level, Proteostat staining)” value [2] was “significantly reduce the aggregation level”, the “formation of adenosine aggregates (aggregation level, Proteostat staining)” value ([2]; listed as purpurin) was “inhibited the formation of these aggregates” and the “cell viability (XTT)” value (ADA deficient LCLs; 2 μM Purpurin, with adenosine, 72 hours, vs control LCLs) was “substantial improvement in cell viability”.
For `Nc1ncnc2c1ncn2[C@@H]1O[C@H](CO)[C@@H](O)[C@H]1O` [adenosine, Adenosine], the “Proteostat staining of ADA deficient LCLs compared to healthy LCLs” value ([2]; adenosine 200 μg/ml, 72 hours) was 2-3 fold, the “survival of ADA deficient LCLs in the presence of adenosine” value (ADA deficient LCLs; adenosine 300 μg/ml, XTT) was “below 40%” and the “survival, 4 out of 5 ADA deficient cell lines” value (ADA deficient LCLs; adenosine 300 μg/ml, XTT) was “less than 20%”. For the same compound, the “survival of healthy LCLs in the presence of adenosine” value (healthy LCLs) was “above 70%”.
For `O=C(OC[C@H]1O[C@@H](OC(=O)c2cc(O)c(O)c(OC(=O)c3cc(O)c(O)c(O)c3)c2)[C@H](OC(=O)c2cc(O)c(O)c(OC(=O)c3cc(O)c(O)c(O)c3)c2)[C@@H](OC(=O)c2cc(O)c(O)c(OC(=O)c3cc(O)c(O)c(O)c3)c2)[C@@H]1OC(=O)c1cc(O)c(O)c(OC(=O)c2cc(O)c(O)c(O)c2)c1)c1cc(O)c(O)c(OC(=O)c2cc(O)c(O)c(O)c2)c1` [TA, Tannic acid], the “formation of adenine amyloid-like assemblies / growth, inhibitor added at earlier time points” value (aah1Δapt1Δ strain; 0.5 mM TA added at earlier time points of yeast growth) was “hinder the formation of adenine amyloid-like assemblies”, the “growth, inhibitor added at later stages” value (aah1Δapt1Δ strain; 0.5 mM TA added at later stages of yeast growth) was “no effect on their growth” and the “cell growth of the salvage mutant” value (aah1Δapt1Δ strain; in the presence of adenine, TA added to the yeast media at various concentrations) was “clearly improved cell growth of the salvage mutant in a dose-dependent manner”. For the same compound, the “metabolite aggregation (ProteoStat, flow cytometry)” value [3] was “decrease in metabolite aggregation”, the “ProteoStat stained dots (confocal microscopy)” value (aah1Δapt1Δ cells [4]) was “absence of the stained dots” and the “presence inside the cell (LC-MS)” value (aah1Δapt1Δ cells [5]) was “detected inside the cell”. For the same compound, the “growth of wild-type strain” value (wild-type strain) was “no effect was observed”, the “growth inhibition of the salvage mutant strain in the presence of Hcy” value (cys4Δ strain) was “significantly ameliorated the growth inhibition” and the “adenine self-assembly in vitro” value (adenine fibrils [6]) was “inhibition of adenine self-assembly in vitro”. For the same compound, the “phenylalanine aggregation and cytotoxicity of the assemblies in vitro” value (phenylalanine assemblies) was “counteract”.
